Assay results published in a melting point compilation (Tetko et al.; mined from patent text by program, amines drawn as free bases though some values may be those of a salt).

SMILES | melting point [°C]
Cc1ccccc1C(=O)Nc1ccc(C(=O)N2CCCC(OCC(=O)N3CCSCC3)c3ccccc32)cc1 (stereo not given) | 235 to 237
Cc1c(NC(=O)CC(C)(C)C)cc2c(c1C)OC(C)(C)C2c1ccc(C=O)cc1 (stereo not given) | 169 to 170
COc1cc(Nc2nc3cccc(-c4cncc5ccccc45)c3o2)cc(OC)c1OC | 201 to 203
CCOC(=O)CCn1c(-c2ccc(Cl)cc2)nc2cccnc21 | 57 to 59
CCOC(=O)C(C)(C)Sc1ccc2c(-c3ccccc3F)noc2c1Cl | 83.4
Cc1ccc2c(c1)c(-c1ccc(F)cc1)c(C)n2C1CCN(CCN2CCNC2=O)CC1 | 188 to 190
CCOC(=O)CCCCOc1ccc(C(=N)NC(=O)OCc2ccccc2)cc1 | 88 to 90
O=C(O)Cc1cccc(NC(=O)NCC(=O)N2[C@@H](c3ccccc3)CC[C@H]2c2ccccc2)c1 | 152
COc1ccc(Cl)cc1CCC(=O)O | 91 to 92
CCN1c2ncc(COc3cccc(C(N)=O)c3)cc2C(=O)N(C)c2ccc(Cl)nc21 | 96 to 98
O=C(NNC(=O)c1occ(-c2ccccc2)c1-c1ccccc1)c1ccc(O)c(I)c1 | 171 to 174
CCC(=O)OCOC(=O)C1=C(C)N(COC)C(C)=C(C(=O)OCOC(=O)CC)C1c1cccc([N+](=O)[O-])c1 | 86 to 87
CC1=NOC(c2c(S(C)(=O)=O)ccc(C(=O)C3=C(O)CCCC3=O)c2C)C1 (stereo not given) | 135 to 140
CCOP(=O)(CC(=O)N(CC)c1cn(-c2cccnc2)nc1Cl)OCC | 46 to 48
CN1CCN(C(=O)CCCCCNC(=O)c2cc(OCc3ccccc3)ccc2OCc2ccccc2)CC1 | 78 to 79
COC(=O)c1c(C(=O)OC)c(-c2cc(OC)c(OC)c(OC)c2)c2c(OC)c(OC)c(OC)cc2c1O | 165 to 167
CCCc1nc(C(C)(O)CC)c(C#N)[nH]1 (stereo not given) | 157 to 159
COP(=O)(Cc1ccc(NC(=O)/C=C/c2cnn(C)c2-c2ccoc2)cc1)OC | 176 to 177
O=C(O)COc1ccc(S(=O)(=O)c2cccs2)c(Cl)c1Cl | 179
COC1=C(C(=O)c2ccc(Cl)cc2Cl)C(=O)CCC1 | 81 to 86
N#CC(=CNC1CC1)C(=O)c1cc(F)c(Cl)cc1Cl | 94 to 95
CN1CCC(c2cccc3ccc(NC(=O)c4ccccc4)cc23)C1 (stereo not given) | 137 to 145
Cn1nnnc1-c1cn(C)c2cc(F)ccc2c1=O | 264 to 267
Cc1cc(C2=CCN=C(CCCC(O)c3ccc(F)cc3)C2)on1 (stereo not given) | 116 to 119
CCOc1cc(OCC)c(C=NNC(=N)NCc2ccccc2)c(OCC)c1 | 140 to 141

SMILES | melting point [°C]
CN(C(=O)c1ccc2nonc2c1)C1CCSCC1 | 155 to 156
CCCc1nc2c(N)nc3ccccc3c2o1 | 159 to 160
COc1cc(NC(C)C)ccc1CN1C(=O)C(C)(c2ccccc2Cl)c2cc(Cl)ccc21 (stereo not given) | 137
CCCC(=O)OC1CSC(Oc2cccnc2)C(OC(=O)CCC)C1OC(=O)CCC (stereo not given) | 70
CCOc1noc(-c2nc[nH]n2)c1C | 194 to 196
NC(=O)N1CC(Sc2ccc(Cl)cc2)C1 | 210 to 212
Cc1cnc2c(NC(=O)c3c(Cl)cccc3Cl)ccc(C)c2c1-n1ccnc1 | 214 to 216
CCOC(=O)CC(=O)c1cc(F)c(F)c(OC)c1F | 42 to 44
CCCCCCCCN(C)C(=O)C(C)(C)n1cc(C)c(-c2ccccc2)n1 | 75 to 78
CCOc1ccc(C(=O)C2=C(O)C(=O)N(c3ccc(C)nn3)C2c2ccc(OC(F)(F)F)cc2)cc1 (stereo not given) | 255 to 257
Cc1oc(-c2ccccc2)nc1COc1cccc(CN(O)C(N)=O)c1 | 151 to 152
CC(=O)Nc1ccc(S(=O)(=O)Nn2cc(-c3ccccc3)c3ccccc32)cc1 | 190 to 193
CC(C)(C)c1ccc(OCCCCCCN2CCN(c3nccs3)CC2)cc1 | 30 to 32
COc1cccc(-c2n[nH]c(-c3ccccc3CO)n2)c1 | 155 to 156
CCCCCNC(=O)n1nc(Oc2ncc(C(F)(F)F)cc2Cl)c(Cl)c1C | 76 to 78
CCC1CC2=CC(OC(=O)c3ccc([N+](=O)[O-])cc3)CCC2C2CCC3(C)C(O)CCC3C12 (stereo not given) | 135 to 136
O=C(CCN1CCN(c2ncccn2)CC1)N1CC2CC3CC(C2)CC1C3 | 117 to 119
COCc1sc(C(C)(O)c2ccsc2)nc1C (stereo not given) | 71 to 73
CCOC(=O)c1ncn2c1CN(C)C(=O)c1c(C)cccc1-2 | 146 to 147
COC(=S)NC[C@H]1CN(c2ccc(-c3nc(Cn4cncn4)cs3)c(F)c2)C(=O)O1 | 189 to 191
CC(C)(C)OC(=O)NCC(=O)Nn1cccc1C(=O)c1ccccc1Cl | 156 to 158
COC(=O)CN(CC(=O)OC)[C@H]1CC[C@H](Nc2ncc3ncnc(Nc4ccc(F)c(Cl)c4)c3n2)CC1 | 181 to 184
Cc1cc2c(c(C(C)(C)C)c1)OC(=O)C2=C1C(=O)Oc2c1cc(C)cc2C(C)(C)C | 253 to 255
CN(C(=O)NCCc1ccc(F)cc1)c1cccc(-c2ccc(CCC(=O)O)cc2)c1 | 146
O=C(O)COCCOCCN1C(=O)c2ccccc2C1=O | 88 to 90
